One assay relates to CD4^+ T cells. Description: T cell proliferation assay (CFSE-labeled CD4+ T cells co-cultured with pre-treated Ly6G+ cells). The class given is cell-based, mice. Particulars: Ly6G+ cells pre-treated 10 μM, 1 hour; co-culture 4 days; DMSO control. The method, then:
(§1) Isolation of Bone Marrow Lymphocyte Antigen 6 Member G—Positive (Ly6G^+) Cell Ly6G^+ cells were isolated by magnetic bead sorting. For CPI-613 (also known as Devimistat; a pyruvate dehydrogenase inhibitor) treatment, freshly isolated Ly6G^+ cells were pre-treated with DMSO or 10 μM CPI-613 at 37° C. for 1 hour, and then co-cultured with Cluster of Differentiation 4 Protein-positive […] (CD4^+ T cells) or co-injected with B16 melanoma cells for further analysis.
T cell Proliferation Assay CD4^+ T cells were isolated from the spleen and labeled with carboxyfluorescein succinimidyl ester (CFSE) as previously described. CFSE-labeled CD4^+ T cells were co-cultured with Ly6G^+ cells in 96-well plates pre-coated with anti-CD3 mAb (2 μg/mL) (145-2C11, cat #553057) and anti-CD28 mAb (5 μg/mL) (37.51, cat #553295) (acquired from BD Biosciences) at 37° C., 5% CO2, for 4 days. The ratio of Ly6G^+ cells to CD4^+ T cells was 1:5. Proliferation of CD4^+ T cells was evaluated as CFSE dilution by flow cytometry analysis.

The test system of assay [1] is Lewis lung carcinoma (LLC) cells. Description: In vitro co-culture of Ly6G+ cells and LLC cells. The class given is cell-based, murine. Particulars: Ly6G+ cells pre-treated 10 μM; co-culture 72 hours. The method, then:
(§2) In Vitro Co-Culture of Ly6G^+ and Tumor Cells B16 melanoma or LLC cells were harvested, resuspended, and adjusted to density at 5×10^4 cells/mL. Isolated Ly6G^+ cells with or without 10 μM CPI-613 pre-treatment were prepared at the cell density of 5×10^6 cells/mL. One hundred microliter of Ly6G^+ cells and 100 μL of B16 melanoma/LLC cells were mixed, and seeded into a well of 96-well plates in DMEM supplemented with 10% FBS. Seventy-two hours later, unattached Ly6G^+ cells were removed by washing with PBS, and the number of attached B16 melanoma/LLC cells was counted. Morphologically, Ly6G^+ cells are much smaller than B16 melanoma/LLC cells for exclusion.
(§3) Small Interfering RNA Transfection Before transfection, Ly6G^+ cells were seeded into 96-well plates at a density of 1×10^6 cells/well. For small interfering RNA (siRNA)-mediated gene knockdown, 50 nmol/L of PDH siRNA (containing a mixture of three independent siRNAs targeting different regions of PDH) or control siRNA was transfected into Ly6G^+ cells with DharmaFECT Transfection Reagent I, chemical formulation for transfection, (acquired from Dharmacon) according to the manufacturer's protocol. After 24 hours of transfection, cells were harvested for further analysis.

For the next assay, the system named is CD11b^+Ly6G^+ cells. As to the kind of experiment: CD11b+Ly6G+ population in bone marrow after CPI-613 injection, flow cytometry. The assay is classed as in vivo. Particulars: Lal−/− mice, 5 mg/kg on days 0, 2, 4, 7; measured day 8; DMSO control. Here is the method:
Mice received 5 mg/kg CPI-613 (PDH inhibitor) on days 0, 2, 4, and 7. On day 8, the CD11b^+Ly6G^+ population in the bone marrow was determined by flow cytometry. DMSO (dimethyl sulfoxide) was used as a control.
(§4) Flow Cytometry Analysis For analyses of percentages of CD11b^+Ly6G^+ (integrin alpha M-positive/Ly6G positive) and Ly6G^+Ly6C^+ (Ly6G positive/lymphocyte antigen 6 C1-positive) cells, single cells harvested from the bone marrow of Lal^+/+ and Lal^−/− mice were stained with APC eFluor 780-conjugated, dye, anti-Ly6G antibody (1A8-Ly6g, cat #47-9668-82), FITC (fluorescein isothiocyanate)-conjugated anti-CD11b antibody (M1/70, cat #11-0112-82), and PE (phycocrythrin)-conjugated anti-Ly6C antibody (HK1.4, cat #12-5932-82) at 4° C. for 15 minutes. All antibodies were acquired from eBioscience, San Diego, CA. For analysis of PD-L1 expression in Ly6G^+ cells, cells were stained with APC eFluor 780-conjugated anti-Ly6G antibody, PE-conjugated anti-CD11c (integrin alpha X) antibody (N418, cat #12-0114-82) (acquired from eBioscience), and PE-Cy7 (cyanine 7)-conjugated anti-PD-L1 antibody (10F.9G2, cat #124314) (acquired from Biolegend) at 4° C. for 15 minutes. Cells were washed with PBS, then were ready for flow cytometry analysis.

For a further assay, the system named is Ly6G^+ cells. Description: Reactive oxygen species (ROS) measurement in Ly6G+ cells by flow cytometry. The assay is classed as cell-based, mice. Particulars: CPI-613 treatment; versus Lal+/+ Ly6G+ cells. Here is the method: as §1
Reactive Oxygen Species (ROS) Measurement The ROS level in Ly6G^+ cells was measured by flow cytometry as previously described. Ly6G^+ cells from Lal^+/+ and Lal^−/− mice with or without CPI-613 pre-treatment were collected and stained with APC eFluor 780-conjugated anti-Ly6G antibody, FITC-conjugated anti-CD11b antibody and 2 μmol/L 2′, 7′-dichlorofluorescein diacetate (acquired from Invitrogen, Carlsbad, CA) at 37° C. for 30 minutes. After PBS washing, the ROS level in Ly6G^+ cells was analyzed using an LSRII machine.
Small Interfering RNA Transfection Before transfection, Ly6G^+ cells were seeded into 96-well plates at a density of 1×10^6 cells/well. […]
For orientation: Flow cytometry measures light scatter and fluorescence of single cells or particles in a stream.

Assay [2] deals with B16 melanoma cells. Description: Subcutaneous co-injection of pre-treated Ly6G+ cells with B16 melanoma cells, tumor growth. Particulars: Ly6G+ cells pre-treated 10 μM 1 hour, co-injected with B16 melanoma cells into Lal+/+ recipient mice; tumor size at 10 days. The class given is in vivo. Here is the method:
Subcutaneous Injection of Tumor Cells into Lal^+/+ Mice To study the effect of Ly6G^+ cells on tumor growth, isolated 1×10^6 Ly6G^+ cells from Lal^+/+ or Lal^−/− mice were pre-treated with DMSO or 10 μM CPI-613 for 1 hour, mixed with 2×10^5 B16 melanoma cells, and the cell mixture was injected subcutaneously at the flank region of Lal^+/+ recipient mice. The tumor growth was monitored twice a weck. The tumor volume (mm^3) was estimated by measuring the maximal length (L) and width (W) of a tumor and calculated using the formula: (length×width^2)/2. For tumor-bearing myeloid-derived suppressor cells (MDSCs) experiments, Lal^+/+ or Lal^−/− mice were injected with 1×10^6 B16 melanoma cells at flank sites on two sides. Fourteen days later, the mice were sacrificed. Tumor tissues were harvested, digested for single cell preparation, and stained for flow cytometry analysis of the CD11b^+Ly6G^+ cells.

Another assay relates to PD-L1. Description: PD-L1 expression in Ly6G+ cells after in vivo CPI-613 treatment, flow cytometry. Also noted: species or system mice. Particulars: 5 mg/kg on days 0, 2, 4, 7; day 8; PD-L1+ cells in Ly6G+CD11c+ cells. The method, then: FIG. 3J measures PD-L1^+ cells of Ly6G^+ CD11c^+ cells isolated from Lal^+/+ and Lal^−/− mice. Mice received 5 mg/kg CPI-613 on days 0, 2, 4, and 7. On day 8, the percentage of PD-L1^+ cells in Ly6G^+ CD11c^+ cells was measured by flow cytometry analysis.
as §4

Assay [3] concerns B16 melanoma cells. Description: In vitro co-culture of Ly6G+ cells and B16 melanoma cells. The class given is cell-based, murine. Particulars: Ly6G+ cells pre-treated 10 μM; co-culture 72 hours. Here is the method: as §2, §3
Assay [4] deals with lysosomal acid lipase (LAL). Description: Human leucocytes incubated with LAL inhibitor, MDSC subsets by flow cytometry. The class given is cell-based. Particulars: leucocytes from healthy subjects, 10 μM, 24 hours. The method, then: Human leucocytes from healthy individuals were incubated with 10 μM Lalistat2, an LAL inhibitor (L) or DMSO (S) for 24 hours; control group (C) were not treated. After 24 hours, cells were analyzed by flow cytometry.
Human Blood Samples The blood donor characteristics of the human blood samples of normal subjects and non-small-cell lung cancer (NSCLC, at stage III-IV) patients is described in TABLE 8. NSCLC patients were selected by screening with Programmed death-ligand 1 (PD-L1) Tumor Proportion Score (TPS)≥10%. Both normal subjects and NSCLC patients include male and female, White and African American. To inhibit lysosomal acid lipase (LAL) activity, human blood cells from healthy participants had the red blood cells (RBCs) removed with lysis buffer acquired from Biolegend (San Diego, CA); washed with phosphate buffered saline (PBS) by centrifugation at 240×g for 5 minutes at room temperature; and then incubated with 10 μM LAL inhibitor Lalistat2, acquired from Cayman, Ann Arbor, MI) for 24 hours. As a control, human blood cells were incubated with dimethyl sulfoxide (DMSO).
For flow cytometry analysis of human blood samples, human blood cells had the RBCs removed, washed with PBS, and stained with APC-eFluor 780-conjugated anti-CD11b antibody (ICRF44, cat #47-0118-42), FITC-conjugated anti-CD13 (aminopeptidase N) antibody (WM15, cat #11-0138-42), PE-conjugated anti-CD14 antibody (61D3, cat #12-0149-42), APC-conjugated anti-CD15 (Lewis X) antibody (MMA, cat #17-0158-42), PE-conjugated anti-CD33 antibody (HIM3-4, cat #12-0339-42), PE-Cy7-conjugated anti-HLA-DR (major histocompatibility complex, class II) antibody (L243, cat #25-9952-42) (all acquired from eBioscience) at 4° C. for 15 minutes. Cells were then washed with PBS, fixed with 1% paraformaldehyde, and prepared for flow cytometry analysis. To analyze LAL levels, cells were further fixed and permeabilized using BD Cytofix/Cytoperm Fixation/Permeabilization Kit, cell fixation and permeabilization kit, and incubated with non-fluorescence conjugated anti-LAL antibody at 4° C. overnight. […]

In the case of `O=C(O)CCCCC(CCSCc1ccccc1)SCc1ccccc1` (stereo not shown) [CPI-613], the “Lal−/− Ly6G+ cells' suppressive activity on T cell proliferation” value in the assay on CD4^+ T cells is recorded as “reversed”. The “capability of Lal−/− Ly6G+ cells in promoting tumor cell proliferation, LLC” value in assay [1] is given as “reduced capabilities”. Also, the “Lal−/− CD11b+Ly6G+ cells (percentage in bone marrow)” value in the assay on CD11b^+Ly6G^+ cells was “reduced”. The “overproduction of ROS in Lal−/− CD11b+Ly6G+ cells” value in the assay on Ly6G^+ cells was “significantly reversed”. For the same compound, the “capability of Lal−/− Ly6G+ cells in stimulating tumor growth” value in the assay with B16 melanoma cells [2] was “reduced capabilities”. For the same compound, the “PD-L1 expression in Lal−/− Ly6G+ cells” value in the assay with PD-L1 is “effectively reduced”. For the same compound, the “capability of Lal−/− Ly6G+ cells in promoting tumor cell proliferation, B16 melanoma” value with B16 melanoma cells [3] is listed as “reduced capabilities”.
As to `O=C(Oc1nsnc1N1CCCCC1)N1CCCCC1` [Lalistat2], in assay [4], the “induction of CD11b+CD15+HLA-DR− MDSC subset” value is recorded as “did not reach statistical significance”, the “percentage of CD11b+CD13+HLA-DR− MDSC subset” value is “increased” and the “percentage of CD11b+CD14+HLA-DR− MDSC subset” value is on record as “increased”.
